# How the values were obtained:
# Format in all cases: biochemical
# PAD4 = molecular target: T1, PAD4 (Homo sapiens, UniProt Q9UM07); experiment: Inactivation kinetics, PAD4; conditions: for kinact/KI: a: single kobs determined, b: from a linear fit; for Fold PAD4 Selectivity: kinact/KI relative to least inhibited isozyme (1.0)
# T1 construct: made in house
# Protocol: (§1) Inactivation kinetic parameters were determined by incubating PAD1, 2, or 4 (2.0 μM) or PAD3 (5.0 μM) in a pre-warmed (10 min; 37° C.) inactivation mixture (50 mM HEPES, 10 mM CaCl2, and 2 mM DTT, pH 7.6, with a final volume of 60 μL) containing various concentrations of inhibitor. Aliquots were removed at various time points and added to a pre-warmed (10 min, 37° C.) reaction mixture (50 mM HEPES, 50 mM NaCl, 10 mM CaC2, 2 mM DTT, and 10 mM BAEE or 10 mM BAA in the case of PAD3; pH 7.6). After 15 min, reactions were quenched in liquid nitrogen and citrulline production quantified using the COLDER assay. […] In Vitro Labeling of PADs with “Clickable” Probes BB-F-Yne (5u), BB-Cl-Yne (5v) and BIFYne (5w)
# PAD3 = molecular target: T2, PAD3 (Homo sapiens, UniProt Q9ULW8); experiment: Inactivation kinetics, PAD3; conditions: for kinact/KI: a: single kobs determined; for Fold PAD3 Selectivity: kinact/KI relative to least inhibited isozyme (1.0)
# T2 construct: made in house
# T2 sequence (Q9ULW8 1-664): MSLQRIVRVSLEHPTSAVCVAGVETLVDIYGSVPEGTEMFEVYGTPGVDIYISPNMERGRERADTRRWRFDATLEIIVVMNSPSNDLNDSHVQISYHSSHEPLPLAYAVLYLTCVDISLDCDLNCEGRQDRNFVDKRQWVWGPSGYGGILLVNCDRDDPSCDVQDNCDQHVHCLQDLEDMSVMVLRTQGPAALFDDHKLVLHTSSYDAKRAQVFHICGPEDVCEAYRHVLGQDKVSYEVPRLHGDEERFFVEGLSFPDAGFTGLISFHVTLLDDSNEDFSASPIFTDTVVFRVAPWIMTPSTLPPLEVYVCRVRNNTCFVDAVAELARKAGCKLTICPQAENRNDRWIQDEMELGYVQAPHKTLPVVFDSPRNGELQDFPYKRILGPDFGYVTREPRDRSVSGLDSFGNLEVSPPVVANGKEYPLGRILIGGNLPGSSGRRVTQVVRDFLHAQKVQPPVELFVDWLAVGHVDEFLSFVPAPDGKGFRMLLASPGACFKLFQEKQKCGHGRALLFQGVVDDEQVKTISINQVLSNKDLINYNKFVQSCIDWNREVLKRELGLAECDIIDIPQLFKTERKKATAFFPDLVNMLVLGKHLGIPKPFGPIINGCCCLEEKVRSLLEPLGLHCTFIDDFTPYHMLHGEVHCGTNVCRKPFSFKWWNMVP
# Protocol: as §1
# PAD1 = molecular target: T3, PAD1 (Homo sapiens, UniProt Q9ULC6); experiment: Inactivation kinetics, PAD1; conditions: for kinact/KI: a: single kobs determined, b: from a linear fit; for Fold PAD1 Selectivity: kinact/KI relative to least inhibited isozyme (1.0)
# T3 construct: made in house
# T3 sequence (Q9ULC6 1-663): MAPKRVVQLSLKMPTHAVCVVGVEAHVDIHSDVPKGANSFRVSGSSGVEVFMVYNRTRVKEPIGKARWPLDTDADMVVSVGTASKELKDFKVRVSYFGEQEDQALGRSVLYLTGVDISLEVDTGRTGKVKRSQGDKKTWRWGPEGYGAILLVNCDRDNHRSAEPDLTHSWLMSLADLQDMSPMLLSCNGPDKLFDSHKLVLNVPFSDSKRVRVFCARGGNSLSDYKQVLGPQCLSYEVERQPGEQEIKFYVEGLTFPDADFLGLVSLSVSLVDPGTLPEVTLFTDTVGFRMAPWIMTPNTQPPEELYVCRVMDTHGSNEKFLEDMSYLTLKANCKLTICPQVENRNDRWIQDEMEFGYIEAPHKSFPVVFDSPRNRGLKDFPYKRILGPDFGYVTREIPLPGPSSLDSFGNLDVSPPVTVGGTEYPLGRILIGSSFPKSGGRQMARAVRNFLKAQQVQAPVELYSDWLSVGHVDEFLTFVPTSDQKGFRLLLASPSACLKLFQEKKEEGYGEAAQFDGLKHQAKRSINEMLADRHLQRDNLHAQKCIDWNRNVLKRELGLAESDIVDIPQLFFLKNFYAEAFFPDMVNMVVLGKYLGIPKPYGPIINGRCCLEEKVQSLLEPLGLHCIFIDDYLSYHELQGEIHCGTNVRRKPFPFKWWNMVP
# Protocol: as §1
# PAD2 = molecular target: T4, PAD2 (Homo sapiens, UniProt Q9Y2J8); experiment: Inactivation kinetics, PAD2; conditions: for kinact/KI: a: single kobs determined, b: from a linear fit, other footnotes: from kinact and KI; for Fold PAD2 Selectivity: kinact/KI relative to least inhibited isozyme (1.0); for Ki / kinact: PAD2, table footnote
# T4 construct: made in house
# Protocol: as §1
# T1 sequence (Q9UM07 whole entry): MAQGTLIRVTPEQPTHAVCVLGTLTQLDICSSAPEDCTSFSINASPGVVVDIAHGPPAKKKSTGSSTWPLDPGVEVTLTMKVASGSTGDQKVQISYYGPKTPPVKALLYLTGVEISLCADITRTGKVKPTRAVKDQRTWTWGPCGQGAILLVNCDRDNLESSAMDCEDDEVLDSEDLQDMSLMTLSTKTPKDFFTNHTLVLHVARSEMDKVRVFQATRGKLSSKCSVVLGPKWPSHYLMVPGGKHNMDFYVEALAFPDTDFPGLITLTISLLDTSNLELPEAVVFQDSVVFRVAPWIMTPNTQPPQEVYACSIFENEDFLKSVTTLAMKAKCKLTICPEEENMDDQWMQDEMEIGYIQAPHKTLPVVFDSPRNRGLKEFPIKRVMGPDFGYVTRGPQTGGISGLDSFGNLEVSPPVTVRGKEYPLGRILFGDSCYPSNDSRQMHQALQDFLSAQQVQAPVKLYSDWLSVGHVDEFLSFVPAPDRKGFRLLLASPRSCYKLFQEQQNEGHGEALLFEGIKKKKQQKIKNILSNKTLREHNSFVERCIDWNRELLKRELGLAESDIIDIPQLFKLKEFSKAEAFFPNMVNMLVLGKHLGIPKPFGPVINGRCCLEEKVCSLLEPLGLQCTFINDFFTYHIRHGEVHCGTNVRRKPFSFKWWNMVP
# T4 sequence (Q9Y2J8 whole entry): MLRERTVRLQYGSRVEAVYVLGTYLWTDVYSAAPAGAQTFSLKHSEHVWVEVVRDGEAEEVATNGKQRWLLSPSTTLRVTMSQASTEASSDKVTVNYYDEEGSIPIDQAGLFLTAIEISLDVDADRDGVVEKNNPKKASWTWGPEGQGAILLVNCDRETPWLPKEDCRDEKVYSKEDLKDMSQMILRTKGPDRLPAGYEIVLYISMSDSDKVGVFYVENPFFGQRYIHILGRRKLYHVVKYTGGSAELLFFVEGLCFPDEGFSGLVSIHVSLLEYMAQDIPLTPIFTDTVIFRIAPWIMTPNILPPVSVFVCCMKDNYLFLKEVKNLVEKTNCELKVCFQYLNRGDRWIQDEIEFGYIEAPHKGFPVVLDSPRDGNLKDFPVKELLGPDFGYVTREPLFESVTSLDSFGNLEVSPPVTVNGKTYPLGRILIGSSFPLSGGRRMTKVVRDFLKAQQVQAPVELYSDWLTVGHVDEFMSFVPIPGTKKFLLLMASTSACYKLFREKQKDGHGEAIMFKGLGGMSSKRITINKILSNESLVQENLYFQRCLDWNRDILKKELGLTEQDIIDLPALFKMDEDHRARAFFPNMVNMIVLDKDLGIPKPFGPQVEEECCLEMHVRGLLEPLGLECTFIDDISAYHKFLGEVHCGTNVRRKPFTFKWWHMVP
structure (smiles),measurement,setting,value
"N=C(CCl)NCCC[C@H](NC(=O)c1ccccc1C(=O)O)c1nc2ccccc2[nH]1 [Compound 6b, N1-(2-Carboxyl)benzol-N5-(2-chloro-1-iminoethyl)-1-(1H-benzo[d]imidazol-2-yl)-L-omithine]",kinact/KI,PAD4,517 M⁻¹ s⁻¹
same,Fold PAD4 Selectivity,PAD4,9.0 fold
same,kinact/KI,PAD3,354 M⁻¹ s⁻¹
same,Fold PAD3 Selectivity,PAD3,6.2 fold
same,kinact/KI,PAD1,475 M⁻¹ s⁻¹
same,Fold PAD1 Selectivity,PAD1,8.3 fold
same,kinact/KI,PAD2,57.5 M⁻¹ s⁻¹
same,Fold PAD2 Selectivity,PAD2,1.0 fold
"Cn1c([C@H](CCCNC(=N)CF)NC(=O)c2ccccc2C(=O)O)nc2ccccc21 [Compound 6c, N1-(2-Carboxyl)benzoyl-N5-(2-fluoro-1-iminoethyl)-1-(1-methyl-benzo[d]imidazol-2-yl)-L-ornithine]",kinact/KI,PAD4,13.3 M⁻¹ s⁻¹
same,Fold PAD4 Selectivity,PAD4,1.0 fold
same,kinact/KI,PAD3,17.2 M⁻¹ s⁻¹
same,Fold PAD3 Selectivity,PAD3,1.3 fold
same,kinact/KI,PAD1,538 M⁻¹ s⁻¹
same,Fold PAD1 Selectivity,PAD1,40 fold
same,kinact/KI,PAD2,197 M⁻¹ s⁻¹
same,Fold PAD2 Selectivity,PAD2,15 fold
"Cn1c([C@H](CCCNC(=N)CCl)NC(=O)c2ccccc2C(=O)O)nc2ccccc21 [Compound 6d, N1-(2-Carboxyl)benzoyl-N5-(2-chloro-1-iminoethyl)-1-(1-methyl-benzo[d]imidazol-2-yl)-L-ornithine]",kinact/KI,PAD4,130 M⁻¹ s⁻¹
same,Fold PAD4 Selectivity,PAD4,1.0 fold
same,kinact/KI,PAD3,125 M⁻¹ s⁻¹
same,Fold PAD3 Selectivity,PAD3,1.0 fold
same,kinact/KI,PAD1,537 M⁻¹ s⁻¹
same,Fold PAD1 Selectivity,PAD1,4.3 fold
same,kinact/KI,PAD2,240 M⁻¹ s⁻¹
same,Fold PAD2 Selectivity,PAD2,1.9 fold
"CCn1c([C@H](CCCNC(=N)CF)NC(=O)c2ccccc2C(=O)O)nc2ccccc21 [Compound 6e, N1-(2-Carboxyl)benzoyl-N5-(2-fluoro-1-iminoethyl)-1-(1-ethyl-benzo[d]imidazol-2-yl)-L-ornithine]",kinact/KI,PAD4,16.8 M⁻¹ s⁻¹
same,Fold PAD4 Selectivity,PAD4,1.0 fold
same,kinact/KI,PAD3,29.2 M⁻¹ s⁻¹
same,Fold PAD3 Selectivity,PAD3,1.7 fold
same,kinact/KI,PAD1,650 M⁻¹ s⁻¹
same,Fold PAD1 Selectivity,PAD1,39 fold
same,kinact/KI,PAD2,527 M⁻¹ s⁻¹
same,Fold PAD2 Selectivity,PAD2,31 fold
"CCn1c([C@H](CCCNC(=N)CCl)NC(=O)c2ccccc2C(=O)O)nc2ccccc21 [Compound 6f, N1-(2-Carboxyl)benzoyl-N5-(2-chloro-1-iminoethyl)-1-(1-ethyl-benzo[d]imidazol-2-yl)-L-ornithine]",kinact/KI,PAD4,228 M⁻¹ s⁻¹
same,Fold PAD4 Selectivity,PAD4,1.2 fold
same,kinact/KI,PAD3,183 M⁻¹ s⁻¹
same,Fold PAD3 Selectivity,PAD3,1.0 fold
same,kinact/KI,PAD1,785 M⁻¹ s⁻¹
same,Fold PAD1 Selectivity,PAD1,4.3 fold
same,kinact/KI,PAD2,290 M⁻¹ s⁻¹
same,Fold PAD2 Selectivity,PAD2,1.6 fold
"CC(C)n1c([C@H](CCCNC(=N)CF)NC(=O)c2ccccc2C(=O)O)nc2ccccc21 [Compound 6g, N1-(2-Carboxyl)benzoyl-N5-(2-fluoro-1-iminoethyl)-1-(1-isopropyl-benzo[d]imidazol-2-yl)-L-ornithine]",kinact/KI,PAD4,7.67 M⁻¹ s⁻¹
same,Fold PAD4 Selectivity,PAD4,1.0 fold
same,kinact/KI,PAD3,33.5 M⁻¹ s⁻¹
same,Fold PAD3 Selectivity,PAD3,4.4 fold
same,kinact/KI,PAD1,378 M⁻¹ s⁻¹
same,Fold PAD1 Selectivity,PAD1,49 fold
same,kinact/KI,PAD2,412 M⁻¹ s⁻¹
same,Fold PAD2 Selectivity,PAD2,54 fold
"CC(C)n1c([C@H](CCCNC(=N)CCl)NC(=O)c2ccccc2C(=O)O)nc2ccccc21 [Compound 6h, N1-(2-Carboxyl)benzoyl-N5-(2-chloro-1-iminoethyl)-1-(1-isopropyl-benzo[d]imidazol-2-yl)-L-ornithine]",kinact/KI,PAD4,12 M⁻¹ s⁻¹
same,Fold PAD4 Selectivity,PAD4,1.0 fold
same,kinact/KI,PAD3,45 M⁻¹ s⁻¹
same,Fold PAD3 Selectivity,PAD3,3.8 fold
same,kinact/KI,PAD1,817 M⁻¹ s⁻¹
same,Fold PAD1 Selectivity,PAD1,68 fold
same,kinact/KI,PAD2,452 M⁻¹ s⁻¹
same,Fold PAD2 Selectivity,PAD2,38 fold
"COc1cccc2c1nc([C@H](CCCNC(=N)CF)NC(=O)c1ccccc1C(=O)O)n2C [Compound 6i, N1-(2-Carboxyl)benzoyl-N5-(2-fluoro-1-iminoethyl)-1-(4-methoxy-1-methyl-benzo[d]imidazol-2-yl)-L-ornithine]",kinact/KI,PAD4,101 M⁻¹ s⁻¹
same,Fold PAD4 Selectivity,PAD4,1.0 fold
same,kinact/KI,PAD3,113 M⁻¹ s⁻¹
same,Fold PAD3 Selectivity,PAD3,1.1 fold
same,kinact/KI,PAD1,627 M⁻¹ s⁻¹
same,Fold PAD1 Selectivity,PAD1,6.2 fold
same,kinact/KI,PAD2,340 M⁻¹ s⁻¹
same,Fold PAD2 Selectivity,PAD2,3.4 fold
COc1cccc2c1nc([C@H](CCCNC(=N)CCl)NC(=O)c1ccccc1C(=O)O)n2C [Compound 6j],kinact/KI,PAD4,235 M⁻¹ s⁻¹
same,Fold PAD4 Selectivity,PAD4,1.5 fold
same,kinact/KI,PAD3,160 M⁻¹ s⁻¹
same,Fold PAD3 Selectivity,PAD3,1.0 fold
same,kinact/KI,PAD1,1120 M⁻¹ s⁻¹
same,Fold PAD1 Selectivity,PAD1,7.0 fold
same,kinact/KI,PAD2,308 M⁻¹ s⁻¹
same,Fold PAD2 Selectivity,PAD2,1.9 fold
"N=C(CF)NCCC[C@H](NC(=O)c1cccc2c1C(=O)NC2)c1nc2ccccc2[nH]1 [Compound 7a, N1-(3-oxoisoindoline)benzol-N5-(2-fluoro-1-iminoethyl)-1-(1H-benzo[d]imidazol-2-yl)-L-ornithine]",kinact/KI,PAD4,552 M⁻¹ s⁻¹
same,Fold PAD4 Selectivity,PAD4,10 fold
same,kinact/KI,PAD3,53.3 M⁻¹ s⁻¹
same,Fold PAD3 Selectivity,PAD3,1.0 fold
same,kinact/KI,PAD1,1290 M⁻¹ s⁻¹
same,Fold PAD1 Selectivity,PAD1,24 fold
same,Ki,PAD2,210 µM
same,kinact,PAD2,0.0373 s⁻¹
same,kinact/KI,PAD2,177 M⁻¹ s⁻¹
same,Fold PAD2 Selectivity,PAD2,3.3 fold
"N=C(CCl)NCCC[C@H](NC(=O)c1cccc2c1C(=O)NC2)c1nc2ccccc2[nH]1 [Compound 7b, N1-(3-oxoisoindoline)benzol-N5-(2-chloro-1-iminoethyl)-1-(1H-benzo[d]imidazol-2-yl)-L-ornithine]",kinact/KI,PAD4,968 M⁻¹ s⁻¹
same,Fold PAD4 Selectivity,PAD4,2.1 fold
same,kinact/KI,PAD3,467 M⁻¹ s⁻¹
same,Fold PAD3 Selectivity,PAD3,1.0 fold
same,kinact/KI,PAD1,3010 M⁻¹ s⁻¹
same,Fold PAD1 Selectivity,PAD1,6.5 fold
same,kinact/KI,PAD2,1090 M⁻¹ s⁻¹
same,Fold PAD2 Selectivity,PAD2,2.3 fold
Cn1c([C@H](CCCNC(=N)CF)NC(=O)c2cccc3c2C(=O)NC3)nc2ccccc21 [Compound 7c],kinact/KI,PAD4,48.5 M⁻¹ s⁻¹
same,Fold PAD4 Selectivity,PAD4,1.0 fold
same,kinact/KI,PAD3,46.7 M⁻¹ s⁻¹
same,Fold PAD3 Selectivity,PAD3,1.0 fold
same,kinact/KI,PAD1,1140 M⁻¹ s⁻¹
same,Fold PAD1 Selectivity,PAD1,25 fold
same,kinact/KI,PAD2,413 M⁻¹ s⁻¹
same,Fold PAD2 Selectivity,PAD2,8.9 fold
"Cn1c([C@H](CCCNC(=N)CCl)NC(=O)c2cccc3c2C(=O)NC3)nc2ccccc21 [Compound 7d, N1-(3-oxoisoindoline)benzol-N5-(2-chloro-1-iminoethyl)-1-(1-methyl-benzo[d]imidazol-2-yl)-L-ornithine]",kinact/KI,PAD4,398 M⁻¹ s⁻¹
same,Fold PAD4 Selectivity,PAD4,1.0 fold
same,kinact/KI,PAD3,808 M⁻¹ s⁻¹
same,Fold PAD3 Selectivity,PAD3,2.0 fold
same,kinact/KI,PAD1,2430 M⁻¹ s⁻¹
same,Fold PAD1 Selectivity,PAD1,61 fold
same,kinact/KI,PAD2,1220 M⁻¹ s⁻¹
same,Fold PAD2 Selectivity,PAD2,3.1 fold
"CCn1c([C@H](CCCNC(=N)CF)NC(=O)c2cccc3c2C(=O)NC3)nc2ccccc21 [Compound 7e, N1-(3-oxoisoindoline)benzoyl-N5-(2-fluoro-1-iminoethyl)-1-(1-ethyl-benzo[d]imidazol-2-yl)-L-ornithine]",kinact/KI,PAD4,31.7 M⁻¹ s⁻¹
same,Fold PAD4 Selectivity,PAD4,1.7 fold
same,kinact/KI,PAD3,18.3 M⁻¹ s⁻¹
same,Fold PAD3 Selectivity,PAD3,1.0 fold
same,kinact/KI,PAD1,675 M⁻¹ s⁻¹
same,Fold PAD1 Selectivity,PAD1,37 fold
same,Ki,PAD2,32.9 µM
same,kinact,PAD2,0.0337 s⁻¹
same,kinact/KI,PAD2,1030 M⁻¹ s⁻¹
same,Fold PAD2 Selectivity,PAD2,56 fold

# From patent publication US11208386B2, “Inhibitors of protein arginine deiminases (PADs) and methods of preparation and use thereof” (University of Massachusetts, priority 2016, dated 2021)
